From US8026245B2, “HIV replication inhibiting purine derivatives” (Janssen Pharmaceutica N.V., priority 2003, dated 2011)

Legend:
HIV-1 [1] = settings: for pSI (pEC50 − pCC50): Method B, selectivity index, ratio of CC50 to EC50
mock-infected MT-4 cells = assay: Method B: cytotoxicity in mock-infected MT-4 cells engineered with GFP under a constitutional promotor; assay type: cell-based
Method: (§1) In these cells, engineered with GFP (and an HIV-specific promotor), ongoing HIV-infection was measured fluorometrically. Cytotoxicity is measured in the same cells, but engineered with GFP under a constitutional promotor. The infection (or inhibition thereof) of HIV infected cells and the fluorescence of mock-infected cells is assessed by the fluorescent GFP signal generated by the two above mentioned cell lines.
(§2) The 50% cytotoxic concentration (CC50 in μM) was defined as the concentration of compound that reduced fluorescence of the mock-infected cells by 50%.

HIV-1 [2] = assay: microbe, parasite or virus in culture; settings: Human immunodeficiency virus 1, MT4, read-out: pEC50 (−logEC50) (converted)
[3] = Method B: cytotoxicity in mock-infected MT-4 cells engineered with GFP under a constitutional promotor; assay type: cell-based; settings: human; Method B; mock-infected MT-4 cells with GFP, fluorescence reduced by 50%; read-out: pCC50 (−logCC50) (converted)
Method: as §1, §2

| Compound | pEC50 (−logEC50) (HIV-1 [1]) | pSI (pEC50 − pCC50) (HIV-1 [1]) | pCC50 (−logCC50) (mock-infected MT-4 cells) | EC50 (HIV-1 [2]) [nM] | CC50 [3] [nM] |
| --- | --- | --- | --- | --- | --- |
| Cc1cc(OCC#N)cc(C)c1Nc1nc(Nc2ccc(C#N)cc2)nc2[nH]cnc12 [Compound 31] | 9.3 | <−4.7 | <4.6 |  |  |
| Cc1cc(CCC#N)cc(C)c1Nc1nc(Nc2ccc(C#N)cc2)nc2[nH]cnc12 [Compound 32] | 8.3 | −3.5 | 4.8 |  |  |
| COc1ccc(Cn2cnc3c(Nc4c(C)cc(/C=C/C#N)cc4C)nc(Nc4ccc(C#N)cc4)nc32)cc1 [Compound 3] |  | −2.6 |  | 3.16 | 1260 |
| CCC(=CC#N)c1cc(C)c(Nc2nc(Nc3ccc(C#N)cc3)nc3[nH]cnc23)c(C)c1 [Compound 58] | 8.3 | 3.2 | 5.1 |  |  |
| Cc1cc(C#N)cc(C)c1Nc1nc(Nc2ccc(C#N)cc2)nc2c1ncn2C [Compound 46] | 9.4 | >4.8 | <4.6 |  |  |
| Cc1cc(/C=C/C#N)cc(C)c1Nc1nc(Nc2ccc(C#N)cc2)nc2ncn(C)c12 [Compound 44] |  | 3.3 | 4.7 |  |  |
| COc1cc(/C=C/C#N)cc(C)c1Nc1nc(Nc2ccc(C#N)cc2)nc2[nH]cnc12 [Compound 6] |  | −2.9 |  | 1 | 794 |
| COc1ccc(Cn2cnc3nc(Nc4ccc(C#N)cc4)nc(Oc4c(C)cc(/C=C/C(=O)N(C)C)cc4C)c32)cc1 [Compound 21] | 8.4 | −3.6 | 4.8 |  |  |
| COc1ccc(Cn2cnc3c(Nc4c(C)cc(/C=C/C#N)cc4OC)nc(Nc4ccc(C#N)cc4)nc32)cc1 [Compound 2] |  | −3.7 |  | 1 | 5010 |
| N#C/C=C/c1cc(Cl)c(Nc2nc(Nc3ccc(C#N)cc3)nc3[nH]cnc23)c(Cl)c1 [Compound 55] | 8.6 | 3.0 | 5.6 |  |  |
| COc1ccc(Cn2cnc3c(Nc4c(C)cc(CCC#N)cc4C)nc(Nc4ccc(C#N)cc4)nc32)cc1 [Compound 13] | 8.2 | −3.1 | 5.2 |  |  |
| COc1cc(/C=C/C#N)cc(C)c1Nc1nc(Nc2ccc(C#N)cc2)nc2c1ncn2C(C)C [Compound 49] | 9.0 | 3.5 | 5.5 |  |  |
| COc1cc(/C=C/C#N)cc(Cl)c1Nc1nc(Nc2ccc(C#N)cc2)nc2[nH]cnc12 [Compound 53] | 8.7 | 2.6 | 6.1 |  |  |
| COc1ccc(Cn2cnc3c(Nc4ccc(C#N)cc4)nc(Nc4c(C)cc(C#N)cc4C)nc32)cc1 [Compound 72] |  | >3.9 |  | 3.16 | > 25100 |
| COc1ccc(Cn2cnc3nc(Nc4ccc(C#N)cc4)nc(Oc4c(C)cc(/C=C/C(N)=O)cc4C)c32)cc1 [Compound 20] | 8.4 | −3.2 | 5.2 |  |  |
| CC(C#N)=Cc1cc(C)c(Nc2nc(Nc3ccc(C#N)cc3)nc3[nH]cnc23)c(C)c1 [Compound 62] | 8.6 | >4.0 | <4.6 |  |  |
| COc1ccc(Cn2cnc3c(Nc4ccc(C#N)cc4)nc(Nc4c(C)cc(/C=C/C#N)cc4C)nc32)cc1 [Compound 73] |  | >3.7 |  | 5.01 | > 25100 |
| C/C(C#N)=C(/C)c1cc(C)c(Nc2nc(Nc3ccc(C#N)cc3)nc3[nH]cnc23)c(C)c1 [Compound 65] | 8.1 | 3.1 | 5.0 |  |  |

| Compound | pEC50 (−logEC50) (HIV-1 [1]) | pSI (pEC50 − pCC50) (HIV-1 [1]) | pCC50 (−logCC50) (mock-infected MT-4 cells) | EC50 (HIV-1 [2]) [nM] | CC50 [3] [nM] |
| --- | --- | --- | --- | --- | --- |
| CCC(=CC#N)c1cc(C)c(Nc2nc(Nc3ccc(C#N)cc3)nc3c2ncn3C)c(C)c1 [Compound 59] | 8.5 | >3.9 | <4.6 |  |  |
| Cc1cc(/C=C/C#N)cc(C)c1Nc1nc(Nc2ccc(C#N)cc2)nc2[nH]cnc12 [Compound 34] | 8.5 | −3.7 | 4.8 |  |  |
| Cc1cc(/C=C/C#N)cc(C)c1Oc1nc(Nc2ccc(C#N)cc2)nc2[nH]cnc12 [Compound 33] | 8.5 | −3.5 | 5.0 |  |  |
| COc1cc(/C=C/C#N)cc(C)c1Nc1nc(Nc2ccc(C#N)cc2)nc2c1ncn2CC#N [Compound 52] |  | 3.6 |  | 0.501 | 2000 |
| Cc1cc(C#N)cc(C)c1Nc1nc(Nc2ccc(C#N)cc2)nc2[nH]cnc12 [Compound 29] | 8.7 | −3.8 | 4.9 |  |  |
| CCOc1cc(C)c(Nc2nc(Nc3ccc(C#N)cc3)nc3[nH]cnc23)c(C)c1 [Compound 30] | 8.8 | −4.0 | 4.8 |  |  |
| COc1cc(/C=C/C#N)cc(C)c1Nc1nc(Nc2ccc(C#N)cc2)nc2c1ncn2CCO [Compound 50] | 9.2 | 3.4 | 5.8 |  |  |
| COc1cc(C=C(C)C#N)cc(C)c1Nc1nc(Nc2ccc(C#N)cc2)nc2[nH]cnc12 [Compound 63] | 8.4 | 3.3 | 5.1 |  |  |
| COc1ccc(Cn2cnc3nc(Nc4ccc(C#N)cc4)nc(Oc4c(OC)cc(/C=C/C#N)cc4OC)c32)cc1 [Compound 19] | 9.2 | <−4.6 | <4.6 |  |  |
| Cc1cc(/C=C/C(=O)N(C)C)cc(C)c1Nc1nc(Nc2ccc(C#N)cc2)nc2[nH]cnc12 [Compound 37] | 8.1 | −2.7 | 5.4 |  |  |
| CCC(=CC#N)c1cc(C)c(Nc2nc(Nc3ccc(C#N)cc3)nc3c2ncn3CC#N)c(C)c1 [Compound 60] | 8.6 | 3.6 | 5.0 |  |  |
| COc1ccc(Cn2cnc3c(Nc4c(C)cc(/C=C/C#N)cc4Cl)nc(Nc4ccc(C#N)cc4)nc32)cc1 [Compound 14] | 8.3 | −2.8 | 5.5 |  |  |
| Cc1cc(C)c(Nc2nc(Nc3ccc(C#N)cc3)nc3c2ncn3C)c(C)c1 [Compound 45] | 9.2 | >4.6 | <4.6 |  |  |
| Cc1cc(/C=C/C#N)cc(Cl)c1Nc1nc(Nc2ccc(C#N)cc2)nc2[nH]cnc12 [Compound 54] | 8.7 | 3.2 | 5.5 |  |  |
| CC(=CC#N)c1cc(C)c(Nc2nc(Nc3ccc(C#N)cc3)nc3[nH]cnc23)c(C)c1 [Compound 56] | 8.4 | >3.8 | <4.6 |  |  |
| COc1cc(/C=C/C#N)cc(OC)c1Oc1nc(Nc2ccc(C#N)cc2)nc2[nH]cnc12 [Compound 35] | 8.4 | −3.5 | 4.9 |  |  |
| CC(C#N)=Cc1cc(C)c(Nc2nc(Nc3ccc(C#N)cc3)nc3c2ncn3C)c(C)c1 [Compound 64] | 9.3 | >4.7 | <4.6 |  |  |
| COc1cc(OC)c(Nc2nc(Nc3ccc(C#N)cc3)nc3[nH]cnc23)c(OC)c1 [Compound 26] | 9.3 | −4.3 | 5.0 |  |  |
